Here are results for 27 molecules from ChEMBL document CHEMBL3046362, “Synthesis, antioxidant evaluation, and quantitative structureactivity relationship studies of chalcones” (Med Chem Res, 2011).

Structures are written as SMILES. Calls of active or inactive are those of the source. No cut-off for these calls is given here.

Holding throughout (format): functional
Assay [1] can be described thus: Antioxidant activity assessed as reducing power of potassium ferricyanide at 50 ug/ml after 20 min by spectrophotometry. More on the design: scale not given: the % may be the effect or the level left.
Assay [2] is described as follows: Antioxidant activity assessed as hydrogen peroxide radical scavenging activity at 50 ug/ml after 10 min by spectrophotometry.
Assay [3] is described as follows: Antioxidant activity assessed as superoxide radical scavenging activity at 50 ug/ml after 10 min by NBT reduction assay.
The test system of assay [4] is Radical scavenging activity. Put plainly: Antioxidant activity assessed as DPPH radical scavenging activity at 50 ug/ml after 20 min.
Assay [5] deals with Radical scavenging activity. The experiment in a line: Antioxidant activity assessed as DPPH radical scavenging activity at 100 to 250 ug/ml by EPR spectroscopy.

`CSc1ccc(/C=C/C(=O)c2ccccc2)cc1`: the Activity in assay [1] came out at 19.8%; in assay [2], 4.26%; in assay [3] it was 27.4%; in assay [4], 10.2%.
For the molecule `COc1ccc(/C=C/C(=O)c2cccc([N+](=O)[O-])c2)c(OC)c1`, the Activity in assay [1] came to 26.5%; in assay [2] it was 5.91%; in assay [3], 23.1%; in assay [4] it was 7.9%.
For `COc1ccc(C(=O)/C=C/c2ccc(SC)cc2)cc1`, in that order: 24.3%, 29.5%, 17.8% and 2.64%.
For `COc1ccc(/C=C/C(=O)c2ccc(Cl)cc2Cl)cc1OC`, in that order: 33.8%, 23.8%, 32.6% and 15.7%.
On the same counts, the results for `COc1ccc(/C=C/C(=O)c2cccc([N+](=O)[O-])c2)cc1OC` are 43.5%, 35.9%, 53.4% and 15.4%.
Consider `CSc1ccc(/C=C/C(=O)c2ccc(C)cc2)cc1`, for which the Activity in assay [1] came to 23.8%; in assay [2] it was 31.7%; in assay [3] it was 23.1%; in assay [4], 3.16%.
In the case of `COc1ccc(/C=C/C(=O)c2cccc(O)c2)cc1`, in assay [5], the outcome was Active. Besides, the Activity in assay [1] is 37.5%; in assay [2] it was 42.8%; in assay [3] it was 62%; in assay [4], 35.7%.
Regarding `CSc1ccc(/C=C/C(=O)c2cccc(O)c2)cc1`, the Activity in assay [1] stood at 51.6%; in assay [2] it was 28.7%; in assay [3] it was 53.3%; in assay [4] it was 21.2%.
On the same counts, the results for `COc1ccccc1/C=C/C(=O)c1ccccc1` are 21.8%, 4.54%, 18.6% and 0.98%.
For `O=C(/C=C/c1ccccc1)c1ccccc1`, in that order: 42.4%, 25.4%, 32.6% and 18.6%.
For `CSc1ccc(/C=C/C(=O)c2ccc(O)cc2)cc1`, in that order: 46%, 23.8%, 52.6% and 28.9%.
In the case of `CSc1ccc(/C=C/C(=O)c2ccc([N+](=O)[O-])cc2)cc1`, the Activity in assay [1] was found to be 3.17%; in assay [2], 4.61%; in assay [3] it was 17.4%; in assay [4] it was 15.9%.
For `COc1ccc(/C=C/C(=O)c2ccccc2)cc1`, in that order: 21.2%, 12.3%, 21.3% and 5.34%.
For `CSc1ccc(/C=C/C(=O)c2cccc([N+](=O)[O-])c2)cc1`, in that order: 27.2%, 46.4%, 39.7% and 15.3%.
For `CSc1ccc(/C=C/C(=O)c2ccc(Br)cc2)cc1`, in that order: 18.8%, 49.7%, 18% and 18%.
Turning to `O=C1O[C@H]([C@@H](O)CO)C(O)=C1O`, the Activity turned out to be 22.6% in assay [1], 78.3% in assay [2], 82.9% in assay [3] and 28% in assay [4].
On the same counts, the results for `COc1ccc(/C=C/C(=O)c2ccc(C)cc2)cc1` are 23.1%, 4.54%, 15.4% and 1.3%.
With `CSc1ccc(/C=C/C(=O)c2ccc(Cl)cc2Cl)cc1`, the Activity came out at 10.1% in assay [1], 17.4% in assay [2], 30.9% in assay [3] and 4.07% in assay [4].
In the case of `COc1ccccc1/C=C/C(=O)c1ccc([N+](=O)[O-])cc1`, the Activity in assay [1] came to 32.8%; in assay [2], 61.3%; in assay [3], 34.5%; in assay [4] it was 7%.
Turning to `COc1ccccc1/C=C/C(=O)c1cccc([N+](=O)[O-])c1`, the Activity in assay [1] was found to be 22.4%; in assay [2], 24.3%; in assay [3], 5.39%; in assay [4], 6.93%.
For `CSc1ccc(/C=C/C(=O)c2ccc(Cl)cc2)cc1`, in that order: 30.9%, 43.5%, 41.4% and 23.2%.
On the same counts, the results for `COc1cc(/C=C/C(=O)c2ccccc2)cc(OC)c1OC` are 40.6%, 22.7%, 28.9% and 15.6%.
`CN(C)c1ccc(/C=C/C(=O)c2cccc([N+](=O)[O-])c2)cc1`: the Activity in assay [1] stood at 28.6%; in assay [2], 17.4%; in assay [3] it was 39%; in assay [4], 18.6%.
With `Cc1cc(C(C)(C)C)c(O)c(C(C)(C)C)c1`, the Activity in assay [1] was 56.1%; in assay [2], 42.6%; in assay [3] it was 79.1%; in assay [4] it was 26.4%.
Regarding `CN(C)c1ccc(/C=C/C(=O)c2ccc(Cl)cc2Cl)cc1`, the Activity in assay [1] was 22%; in assay [2], 32.6%; in assay [3], 10.9%; in assay [4], 12.9%.
On the same counts, the results for `CSc1ccc(/C=C/C(=O)c2ccccc2O)cc1` are 46.7%, 33.3%, 50.2% and 15.4%.
On the same counts, the results for `CN(C)c1ccc(/C=C/C(=O)c2ccccc2)cc1` are 9.52%, 12.1%, 13.8% and 8.08%.
